Data published in patent US5585382A, “Polycyclic and heterocyclic chromophores for bis-imide tumoricidals” (The DuPont Merck Pharmaceutical Company, priority 1995, dated 1996).
Converted amounts (≈) assume the structure as drawn. Where two headings read alike, the source gives them in different places.

What was measured:
[1] = system: MX-1 human mammary carcinoma; assay: In vivo human tumor xenograft MX-1 in nude mice; details: for Tumor Growth Inhibition activity against MX-1 (in words): NCI criteria
From the text: (§1) The DLD-2 human colon tumor and MX-1 human mammary carcinoma, were originally obtained from a surgically-removed primary colon carcinoma or breast tumor respectively. The human tumor lines were maintained by serial passage in athymic nude mice. The MX-1 human mammary carcinoma is an established tumor used by the NCI. The DLD-2 human colon tumor has been well characterized. (Dexter, D. L.; Spremulli, E. N.; Matook, G. M.; Diamond, I.; Calabresi, P. Cancer Research 1982, 42, 5010; Dexter, D. L.; Barbosa, J. A.; Calabresi, P. Cancer Research 1979, 39, 1020.)
(§2) The mice used in these experiments were outbred Swiss mice or CD-1 mice bearing the nude (nu/nu) gene. On Day 0, male and female mice weighing 22-30 g are inoculated with 0.2 mL of a 25% tumor mince. This mince is prepared by mincing fresh tumor tissue, grown subcutaneously in passage mice, in sterile physiological saline. Palpable tumors weighing approximately 50 mg appear in the mice within 7-10 days after inoculation. The mice are pair matched by tumor weight and sex into groups of ten each and the test compounds and vehicle control are administered intravenously (i.v.) once daily for nine consecutive days. A >20% decrease in body weight on Day 5 following compound administration is considered an indication of toxicity. Tumor measurements and body weights are recorded once a week. Fifteen to eighteen days after the initial injection the mice are weighed, sacrificed, and the tumors excised and weighed.
(§3) The efficacy of the test compounds is determined by the extent of tumor growth inhibition in treated versus vehicle-treated control mice. Initial tumor weights (mg) are calculated from the tumor dimensions (mm) obtained from caliper measurements, using the formula for a prolate ellipsoid (mg of tumor weight=(length×width^2)/2). Net tumor weights are calculated for each of the treated groups and the vehicle-treated control group by subtracting the initial tumor weight from the final tumor weight (Day 15-18). Results are expressed as a percentage decrease relative to the mean tumor weight for the control vehicle-treated group.
(§4) Tumor Growth Inhibition= [formula]
(§5) The evaluation criteria of the National Cancer Institute for activity in in vivo cancer models were used. Tumor growth inhibition of 58-89% against the various xenografts is considered moderate activity, and inhibition of ≥90% is considered good to excellent activity. Actual tumor regressions (IR=incomplete regression; FR=full regression) indicate excellent to outstanding activity.

[2] = system: Murine leukemia L1210 cells; assay: In vitro growth inhibition of L1210 cells (MTT, 72 hr); type: cell-based; details: Mus musculus, read-out: L1210 IC50
Protocol: (§6) The reagents for tissue culture were purchased from GIBCO (Grand Island, N.Y.). 5-Dimethylthiazol-2-yl)-2,5-diphenyl tetrazolium bromide (MTT) was purchased from Sigma Chemical Company (St. Louis, Mo.). All agents were prepared as 2 mg/ml stock solutions in DMSO. MTT was prepared as a 1 mg/ml stock solution in Dulbecco's phosphate buffered saline (PBS). All stocks were stored frozen in the dark at -20° C.
(§7) Clone A human colon cancer cells were isolated from the heterogeneous DLD-1 colon tumor line and maintained as previously described (Dexter, D. L.; Barbosa, J. A.; Calabresi, P. Cancer Research 1979, 39, 1020; Dexter, D. L.; Spremulli, E. M.; Fligiel, A.; Barbosa, J. A.; Vogel, R.; Van Vorhees, A.; Calabresi, P. Am. J. Med. 1981, 71, 949.). Murine leukemia L1210 cells were maintained in RPMI-L medium as described (Chen, S.-F.; Ruben, R. L.; Dexter, D. L. Cancer Research 1986, 46, 5014.). All cell lines were incubated at 37° C. in a humidified atmosphere of 5% CO2 -95% air.
(§8) Exponentially growing L1210 cells (1×10^3), or Clone A cells (8×10^2) in 0.1 ml medium were seeded in a 96-well microtiter plate on day 0. On day one, 0.1 ml aliquots of medium containing graded concentrations of test compounds were added to the cell plates. After incubation at 37° C. in a humidified incubator for 72 hr, the plates containing L1210 cells were centrifuged briefly and 100 μl of the growth medium was removed. Cell cultures were incubated with 50 μl of MTT for 4 h at 37° C. (12). The resulting purple formazan precipitate was solubilized with 200 μl of 0.04 N HCl in isopropyl alcohol. Absorbance was read in a Titertek Multiskan MCC scanning well spectrophotometer (Flow Laboratories) at a test wavelength of 570 nm and a reference wavelength of 630 nm. The absorbances were stored on a floppy disk on an IBM-XT and uploaded onto a VAX computer. IC50 values were determined by a computer program that fit the data to the following equation:
(§9) Y=((Am -Ao)/(1+(X/IC50)^n))+Ao
(§10) where Am =absorbance of the control cells; Ao =absorbance of the cells in the presence of highest compound concentration; Y=observed absorbance; X=compound concentration; IC50 =dose of compound that inhibits the number of population doublings of cells to one half that of the number of population doublings of the control cells; and n equals the slope of the straight portion of the curve.
(§11) The values reported in the table are from at least one experiment performed in eight replicates. If more than one experiment was performed, the number reported is the average of all the trials

[3] = system: Clone A human colon cancer cells; assay: In vitro growth inhibition of Clone A cells (MTT, 72 hr); type: cell-based; details: read-out: Clone A IC50
Protocol: as §6, §7, §8, §9, §10, §11

DLD-2 human colon tumor = assay: In vivo human tumor xenograft DLD-2 in nude mice; details: for Tumor Growth Inhibition activity against DLD-2 (in words): NCI criteria
From the text: as §1, §2, §3, §4, §5

[4] = Mus musculus, iv, 216 h, read-out: MX-1 percent tumor growth inhibition
[5] = i.v. once daily for nine days, nude mice
[6] = Mus musculus, iv, 216 h, read-out: MX-1 tumor regressions, IR=incomplete regression
[7] = Mus musculus, iv, 216 h, i.v. once daily for nine days, nude mice, read-out: MX-1 percent tumor growth inhibition

Row | SMILES | Tumor Growth Inhibition activity against MX-1 (in words) [1, 5] | solubility (Solubility in water) [µg/mL] | IC50 ([2]; L1210, 72 h) [µg/mL] | IC50 ([3]; 72 h) [µg/mL] | IC50 ([2]; L1210 cells, 72 hr, MTT) [µg/mL] | IC50 ([3]; Clone A cells, 72 hr, MTT) [µg/mL] | further results
1 | CS(=O)(=O)O.CS(=O)(=O)O.O=C1c2cc([N+](=O)[O-])cc3c2c(cc2ncccc23)C(=O)N1CCNCCNCCN1C(=O)c2cc([N+](=O)[O-])cc3c2c(cc2ncccc23)C1=O [Example 19, 1,2-bis-[2-(3-Nitro-8-azaphenanthrene-1,10-dicarboximido)ethylamino]ethane Dihydromethanesulfonate] | moderate to excellent | 950 | 0.013 | 0.009 |  |  | inhibition in vivo at 6 mg/kg [1, 4]: 84%
2 | CS(=O)(=O)O.CS(=O)(=O)O.C[C@@H](CN1C(=O)c2cc([N+](=O)[O-])cc3c2c(cc2cccnc23)C1=O)NCCN[C@@H](C)CN1C(=O)c2cc([N+](=O)[O-])cc3c2c(cc2cccnc23)C1=O [Example 20, (S,S)-1,2-bis-[2-(3-Nitro-5-azaphenanthrene-1, 10-dicarboximido)-1-methylethylamino]ethane Dihydromethanesulfonate] | moderate to excellent | 3330 | 0.012 |  |  |  | inhibition in vivo at 6.2 mg/kg [1, 4]: 95%; responders at 6.2 mg/kg [1, 6]: 11.1%
3 | Cc1cnc2c(c1)cc1c3c(cc([N+](=O)[O-])cc32)C(=O)N(CCCNCCN2C(=O)c3cc([N+](=O)[O-])cc4c3c(cc3cc(C)cnc34)C2=O)C1=O [Example 22] |  | 30 (≈ 43 µM) |  |  | 0.02 (≈ 0.0287 µM) | 0.003 (≈ 0.0043 µM) | inhibition in vivo at 25 mg/kg [1, 7]: 0%
4 | CS(=O)(=O)O.O=C1c2cc([N+](=O)[O-])cc3c2c(cc2cccnc23)C(=O)N1CCCNCCN1C(=O)c2cc([N+](=O)[O-])cc3c2c(cc2cccnc23)C1=O [Example 3, 3-[2-(3-Nitro-5-azaphenanthrene-1,10-dicarboximido)ethylamino]-1-(3-nitro-5-azaphenanthrene-1, 10-dicarboximido) propane Hydromethanesulfonate] |  | 80 | 0.006 | 0.004 |  |  | inhibition in vivo at 20 mg/kg (DLD-2 human colon tumor; Mus musculus, DLD2, iv, 216 h, read-out: DLD-2 percent tumor growth inhibition): 92%; Tumor Growth Inhibition activity against DLD-2 (in words) (DLD-2 human colon tumor; [5]): moderate to excellent
5 | CS(=O)(=O)O.O=C1c2ccccc2C(=O)c2c1cc1c3c(cccc23)C(=O)N(CCCCNCCCN2C(=O)c3cccc4c5c(cc(c34)C2=O)C(=O)c2ccccc2C5=O)C1=O [Example 100, 4-[3-(7,12-Dihydro-7,12-dioxobenz[a]anthracene-4,5-dicarboximido)propylamino]-1-(7,12-dihydro-7,12-dioxobenz[a]anthracene-4,5-dicarboximido)butane Hydromethanesulfonate] |  | 160 |  |  | 0.014 | 0.07 | inhibition in vivo at 20 mg/kg ([1]; Mus musculus, iv, 216 h, 20 mg/kg, i.v. once daily for nine days, nude mice, read-out: MX-1 percent tumor growth inhibition): 24%
6 | Cc1cnc2c(c1)cc1c3c(cc([N+](=O)[O-])cc32)C(=O)N(C[C@H](C)NCCN[C@@H](C)CN2C(=O)c3cc([N+](=O)[O-])cc4c3c(cc3cc(C)cnc34)C2=O)C1=O [Example 26] |  |  | 0.018 (≈ 0.0238 µM) | 0.012 (≈ 0.0159 µM) |  |  | inhibition in vivo at 6.2 mg/kg [1, 4]: 22%
7 | CS(=O)(=O)O.CS(=O)(=O)O.O=C1c2cc([N+](=O)[O-])cc3c2c(cc2cccnc23)C(=O)N1CCNCCNCCN1C(=O)c2cc([N+](=O)[O-])cc3c2c(cc2cccnc23)C1=O [Example 6, 1,2-bis-[2-(3-Nitro-5-azaphenanthrene-1,10-dicarboximido)ethylamino]ethane Dihydromethanesulfonate] | moderate to excellent | 330 | 0.041 | 0.005 |  |  | inhibition in vivo at 12.5 mg/kg [1, 4]: 81%
8 | Cc1cnc2c(c1)cc1c3c(cc([N+](=O)[O-])cc32)C(=O)N(CCNCCNCCN2C(=O)c3cc([N+](=O)[O-])cc4c3c(cc3cc(C)cnc34)C2=O)C1=O [Example 23] |  | 120 (≈ 165 µM) |  |  | 0.042 (≈ 0.0578 µM) | 0.043 (≈ 0.0592 µM) | inhibition in vivo at 25 mg/kg [1, 7]: 0%
9 | CS(=O)(=O)O.O=C1c2cccc3c2c(cc2ncccc23)C(=O)N1CCCCNCCCN1C(=O)c2cccc3c2c(cc2ncccc23)C1=O [Example 17, 4-[3-(8-Azaphenanthrene-1,10-dicarboximido)propylamino]-1-(8-azaphenanthrene-1,10-dicarboximido) butane Hydromethanesulfonate] |  |  |  |  | 0.001 | 0.001 | inhibition in vivo at 6.2 mg/kg (DLD-2 human colon tumor; Mus musculus, DLD2, iv, 216 h, 6.2 mg/kg, i.v. once daily for nine days, nude mice, read-out: DLD-2 percent tumor growth inhibition): 59%; Tumor Growth Inhibition activity against DLD-2 (in words) (DLD-2 human colon tumor; [5]): moderate to excellent
10 | CS(=O)(=O)O.CS(=O)(=O)O.Cc1cnc2c(c1)cc1c3c(cc([N+](=O)[O-])cc32)C(=O)N([C@H](C)CNCCNC[C@@H](C)N2C(=O)c3cccc4cc([N+](=O)[O-])cc(c34)C2=O)C1=O [Example 117, (R,R)-1-[2-(3-Nitro-7-methyl-5-azaphenanthrene-1, 10-dicarboximido)propylamino]-2-[2-(3-nitronaphthalene-1,8-dicarboximido)propylamino]ethane Dihydromethanesulfonate] | moderate to excellent | 8700 | 0.036 | 0.002 |  |  | responders at 6 mg/kg [1, 6]: 100%
11 | CS(=O)(=O)O.O=C1c2cccc3c2c(cc2ccc(F)cc23)C(=O)N1CCCCNCCCN1C(=O)c2cccc3c2c(cc2ccc(F)cc23)C1=O [Example 56, 4-[3-(6-Fluorophenanthrene-1,10-dicarboximido)propylamino]-1-(6-fluorophenanthrene-1,10-dicarboximido)butane Hydromethanesulfonate] |  | 40 | 0.365 | 0.222 |  |  | 
12 | CS(=O)(=O)O.Cc1nc2cc3c4c(cccc4c2s1)C(=O)N(CCCCNCCCN1C(=O)c2cccc4c2c(cc2nc(C)sc24)C1=O)C3=O [Example 82, 4-[3-(2-Methylnaphtho[2,1-d]thiazole-5,6-dicarboximido)propylamino]-1-(2-methylnaphtho[2,1-d]thiazole-5,6-dicarboximido)butane Hydromethanesulfonate] |  | 4500 |  |  | 0.082 | 0.068 | 
